Values joined by “and” are separate entries in the source; they are usually repeats but may differ in a detail not shown here. Equal entries are not always repeated. Where two headings read alike, the source gives them in different places. A value given as a limit tells only on which side of the number the result lay.

Consider 14 compounds from paper PMC7997411, “Discovery and Optimization of Selective Inhibitors of Meprin α (Part II)” (Pharmaceuticals, 2021).

One experiment addresses T1, ADAM17 (Homo sapiens, UniProt P78536).
T1 construct: purchased R&D Systems 930-ADB
The settings on record: single value given, at 10 μM ref 11; cited from earlier work.

A further experiment concerns the target T2, MMP13 (Homo sapiens, UniProt P45452).
T2 construct: purchased R&D Systems 511-MM
The settings on record: single value given, at 10 μM ref 11; cited from earlier work.

The next experiment deals with T3, ADAM10 (Homo sapiens, UniProt O14672).
T3 construct: purchased R&D Systems 936-AD
T3 sequence (O14672 214-748): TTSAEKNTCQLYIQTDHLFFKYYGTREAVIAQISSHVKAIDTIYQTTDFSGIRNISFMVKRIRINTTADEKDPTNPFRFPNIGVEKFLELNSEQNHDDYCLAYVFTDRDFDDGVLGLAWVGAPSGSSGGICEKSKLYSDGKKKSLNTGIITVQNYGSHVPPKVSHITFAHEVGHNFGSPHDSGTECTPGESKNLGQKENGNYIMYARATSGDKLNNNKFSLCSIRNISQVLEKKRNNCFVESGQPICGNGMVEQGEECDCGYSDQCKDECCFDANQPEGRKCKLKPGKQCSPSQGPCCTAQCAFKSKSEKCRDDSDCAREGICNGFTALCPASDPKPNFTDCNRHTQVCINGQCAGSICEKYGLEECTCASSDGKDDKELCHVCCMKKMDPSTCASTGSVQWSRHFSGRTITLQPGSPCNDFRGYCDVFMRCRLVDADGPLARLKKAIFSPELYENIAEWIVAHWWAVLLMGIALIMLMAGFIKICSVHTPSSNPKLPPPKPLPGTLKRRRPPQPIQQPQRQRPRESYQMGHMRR
The settings on record: single value given, at 10 μM ref 11; cited from earlier work.

A further experiment addresses T4, MMP2 (Homo sapiens, UniProt P08253).
T4 construct: purchased R&D Systems 902-MP
T4 sequence (P08253 110-660): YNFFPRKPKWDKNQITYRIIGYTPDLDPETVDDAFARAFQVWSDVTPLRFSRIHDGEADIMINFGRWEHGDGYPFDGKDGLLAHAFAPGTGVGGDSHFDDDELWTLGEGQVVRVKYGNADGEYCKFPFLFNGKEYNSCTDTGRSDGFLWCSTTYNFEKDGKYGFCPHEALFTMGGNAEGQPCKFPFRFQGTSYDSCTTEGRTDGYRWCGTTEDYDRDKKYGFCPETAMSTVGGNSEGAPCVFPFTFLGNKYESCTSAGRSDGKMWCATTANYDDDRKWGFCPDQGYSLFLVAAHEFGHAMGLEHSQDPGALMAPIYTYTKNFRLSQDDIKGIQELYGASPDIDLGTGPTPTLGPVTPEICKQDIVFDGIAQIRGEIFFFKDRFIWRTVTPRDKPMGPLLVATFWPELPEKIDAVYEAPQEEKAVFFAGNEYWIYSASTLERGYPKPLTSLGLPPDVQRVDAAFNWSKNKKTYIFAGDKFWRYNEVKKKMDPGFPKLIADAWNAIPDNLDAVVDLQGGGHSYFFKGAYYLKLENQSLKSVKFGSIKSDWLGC
The settings on record: single value given, at 10 μM ref 11; cited from earlier work.

The target of the next experiment is T5, MMP9 (Homo sapiens, UniProt P14780).
T5 construct: purchased R&D Systems 911-MP
The settings on record: single value given, at 10 μM ref 11; cited from earlier work.

In experiment [1] the test system is Meprin α. The settings on record: cited from earlier work.
The target in a further experiment is T6, human meprin β (Homo sapiens, UniProt Q16820).
T6 construct: His-tag; made in house; host or cells: BTI-TN-5B1-4 insect cells (baculovirus, amplified in Sf9)
T6 sequence (Q16820 62-701): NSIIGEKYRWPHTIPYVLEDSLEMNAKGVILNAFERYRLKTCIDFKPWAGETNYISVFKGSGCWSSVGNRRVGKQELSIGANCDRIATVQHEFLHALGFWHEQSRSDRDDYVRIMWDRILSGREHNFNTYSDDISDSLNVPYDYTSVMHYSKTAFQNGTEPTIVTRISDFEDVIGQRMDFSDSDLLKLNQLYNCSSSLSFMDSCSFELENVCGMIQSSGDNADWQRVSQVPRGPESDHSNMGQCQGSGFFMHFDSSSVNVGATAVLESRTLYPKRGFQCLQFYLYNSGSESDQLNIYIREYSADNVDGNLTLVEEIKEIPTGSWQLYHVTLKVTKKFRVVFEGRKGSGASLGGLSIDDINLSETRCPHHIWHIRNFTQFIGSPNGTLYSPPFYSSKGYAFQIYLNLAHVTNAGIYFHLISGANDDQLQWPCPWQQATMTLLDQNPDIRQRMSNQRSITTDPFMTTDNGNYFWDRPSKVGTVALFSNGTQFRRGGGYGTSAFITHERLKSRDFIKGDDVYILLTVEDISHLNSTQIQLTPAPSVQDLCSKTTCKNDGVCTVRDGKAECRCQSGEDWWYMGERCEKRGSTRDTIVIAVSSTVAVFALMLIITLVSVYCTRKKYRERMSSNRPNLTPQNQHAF
The experiment in a line: Meprin β assay in a 384-well plate (fluorogenic substrate Mca-EDEDED-K(Dnp)). The format is biochemical. The procedure:
(§1) Recombinant human meprin α and meprin β were expressed using the Bac-to-Bac expression system (Gibco Life Technologies, Paisley, UK) as described before. Media and supplements were obtained from Gibco Life Technologies. Recombinant Baculoviruses were amplified in adherently growing Spodoptera frugiperda (Sf)9 insect cells at 27 °C in Grace’s insect medium supplemented with 10% fetal bovine serum, 50 units/mL penicillin, and 50 μg/mL streptomycin. Protein expression was performed in 500 mL suspension cultures of BTI-TN-5B1-4 insect cells growing in Express Five SFM supplemented with 4 mM glutamine, 50 units/mL penicillin, and 50 μg/mL streptomycin in Fernbach-flasks using a Multitron orbital shaker (INFORS AG, Bottmingen, Switzerland). Cells were infected at a density of 2 × 10^6 cells/mL with an amplified viral stock at a MOI of ~10. […] Meprins were activated by trypsin, which was removed afterwards by affinity chromatography using a column containing immobilized chicken ovomucoid, a trypsin inhibitor.
(§2) Both assays followed the same general protocol. […] After 30 min incubation at RT, the reactions were started by addition of 5 µL of 2× solutions of substrates (20 µM, meprin α Mca-YVADAPK-K(Dnp), and for meprin β Mca-EDEDED-K(Dnp)).

For experiment [2], the target named is T7, meprin α (Homo sapiens, UniProt Q16819).
T7 construct: Strep-tag; made in house; host or cells: BTI-TN-5B1-4 insect cells (baculovirus, amplified in Sf9)
T7 sequence (Q16819 66-746): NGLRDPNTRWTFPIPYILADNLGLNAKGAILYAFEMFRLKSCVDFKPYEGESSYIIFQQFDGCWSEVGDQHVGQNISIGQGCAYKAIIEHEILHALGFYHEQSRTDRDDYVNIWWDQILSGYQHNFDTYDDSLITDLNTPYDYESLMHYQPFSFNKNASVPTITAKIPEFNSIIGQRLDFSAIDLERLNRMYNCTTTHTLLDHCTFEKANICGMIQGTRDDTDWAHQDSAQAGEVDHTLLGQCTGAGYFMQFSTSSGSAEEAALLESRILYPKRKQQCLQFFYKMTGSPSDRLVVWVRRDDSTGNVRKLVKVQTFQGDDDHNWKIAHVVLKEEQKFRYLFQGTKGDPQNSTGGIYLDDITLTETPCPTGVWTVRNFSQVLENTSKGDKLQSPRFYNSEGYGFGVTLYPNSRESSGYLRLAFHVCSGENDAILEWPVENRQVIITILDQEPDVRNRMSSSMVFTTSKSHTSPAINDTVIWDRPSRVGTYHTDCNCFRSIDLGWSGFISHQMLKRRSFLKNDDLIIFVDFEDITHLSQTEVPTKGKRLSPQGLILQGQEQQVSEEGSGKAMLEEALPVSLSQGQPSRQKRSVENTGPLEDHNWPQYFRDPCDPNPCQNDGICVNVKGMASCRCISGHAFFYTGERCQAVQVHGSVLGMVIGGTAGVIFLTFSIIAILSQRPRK
Kind of experiment: Meprin α assay in a 384-well plate (fluorogenic substrate Mca-YVADAPK-K(Dnp)). Type of experiment: biochemical. The procedure:
as §1, §2

T1 sequence (P78536 215-824): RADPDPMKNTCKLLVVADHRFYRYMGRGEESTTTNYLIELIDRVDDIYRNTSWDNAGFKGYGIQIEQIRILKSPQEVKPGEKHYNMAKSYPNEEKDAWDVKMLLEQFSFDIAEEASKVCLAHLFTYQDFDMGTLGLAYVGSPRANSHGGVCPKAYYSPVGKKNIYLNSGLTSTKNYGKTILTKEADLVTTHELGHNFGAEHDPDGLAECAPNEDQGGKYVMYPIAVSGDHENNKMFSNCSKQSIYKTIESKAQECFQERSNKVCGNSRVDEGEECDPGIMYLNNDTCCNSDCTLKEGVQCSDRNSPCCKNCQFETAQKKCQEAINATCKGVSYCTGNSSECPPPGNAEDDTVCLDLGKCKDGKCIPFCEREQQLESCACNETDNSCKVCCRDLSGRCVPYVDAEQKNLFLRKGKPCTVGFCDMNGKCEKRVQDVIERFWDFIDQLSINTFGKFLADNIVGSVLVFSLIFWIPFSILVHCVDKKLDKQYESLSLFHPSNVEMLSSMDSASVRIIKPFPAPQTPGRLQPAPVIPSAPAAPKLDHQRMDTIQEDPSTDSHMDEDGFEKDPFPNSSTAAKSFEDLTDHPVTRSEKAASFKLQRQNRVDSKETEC
T5 sequence (P14780 94-707): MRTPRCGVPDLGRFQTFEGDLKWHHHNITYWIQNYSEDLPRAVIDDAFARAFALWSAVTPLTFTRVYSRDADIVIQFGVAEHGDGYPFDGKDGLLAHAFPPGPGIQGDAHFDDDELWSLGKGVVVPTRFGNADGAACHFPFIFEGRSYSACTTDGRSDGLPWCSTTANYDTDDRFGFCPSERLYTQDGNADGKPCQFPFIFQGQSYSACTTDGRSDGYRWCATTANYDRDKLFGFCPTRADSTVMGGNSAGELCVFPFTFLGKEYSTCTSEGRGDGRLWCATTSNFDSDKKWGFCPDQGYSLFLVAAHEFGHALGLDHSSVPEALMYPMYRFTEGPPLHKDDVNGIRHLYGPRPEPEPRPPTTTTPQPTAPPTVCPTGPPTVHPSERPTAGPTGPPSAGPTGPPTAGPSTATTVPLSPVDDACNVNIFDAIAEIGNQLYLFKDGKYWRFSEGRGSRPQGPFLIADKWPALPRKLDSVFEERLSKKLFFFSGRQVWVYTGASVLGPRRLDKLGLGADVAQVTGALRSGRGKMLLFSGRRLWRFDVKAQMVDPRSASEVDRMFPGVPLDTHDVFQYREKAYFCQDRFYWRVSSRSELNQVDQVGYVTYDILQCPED

For orientation: IC50 means the point on the concentration scale where inhibition reaches its midpoint. Consider `O=C(CN(Cc1ccc(Cl)c(O)c1F)Cc1ccc(Cl)c(O)c1F)NO` [1c], for which the “ADAM17 % activity remaining” value at ADAM17 is recorded as 86%. For the same compound, at MMP13, the “MMP13 % activity remaining” value is 86%. Besides, at ADAM10, the “ADAM10 % activity remaining” value was 86%. Besides, the “MMP2 % activity remaining” value at MMP2 was 95%. For the same compound, on MMP9, the “MMP9 % activity remaining” value is on record as 91%. Also, in the experiment with Meprin α [1], the IC50 was 0.19 ± 0.001 µM.
`O=C(CSc1nnc(NC(=O)COc2ccccc2)s1)NO` [SR19848]: the results for the IC50 on human meprin β and on meprin α [2] were 0.329 µM and 0.217 µM, respectively. Further, on meprin α [2] (Figure 1), the “meprin α/β selectivity (in words)” value is recorded as “no meprin α/β selectivity”.
Consider `COc1cc(OC)nc(SCc2nnc(SCC(=O)NO)n2-c2ccc(C(F)(F)F)cc2)n1` [SR24003, 2-((5-(((4,6-dimethoxypyrimidin-2-yl)thio)methyl)-4-(4-(trifluoromethyl)phenyl)-4H-1,2,4-triazol-3-yl)thio)-N-hydroxyacetamide], for which the IC50 against human meprin β (triplicate, ± SD) is over 100 µM; against meprin α [2] (triplicate, ± SD), 5.4 ± 1.2 µM.
In the same order, the values of `COc1ccc(-n2c(CSc3nc(C)cc(C)n3)nnc2SCC(=O)NO)cc1` [SR24139, 2-((5-(((4,6-dimethylpyrimidin-2-yl)thio)methyl)-4-(4-methoxyphenyl)-4H-1,2,4-triazol-3-yl)thio)-N-hydroxyacetamide] are 60 ± 7 µM and 4.1 ± 0.8 µM.
Consider `COc1ccc(-n2c(CSc3nc(OC)cc(OC)n3)nnc2SCC(=O)NO)cc1` [SR24144, 2-((5-(((4,6-dimethoxypyrimidin-2-yl)thio)methyl)-4-(4-methoxyphenyl)-4H-1,2,4-triazol-3-yl)thio)-N-hydroxyacetamide], for which the “inhibition of meprin β at 100 μM (in words)” value on human meprin β (100 μM) is “complete lack of inhibition”. For the same compound, the concentration for half-maximal inhibition (IC50) against human meprin β (triplicate, ± SD) was over 100 µM; at meprin α [2] (triplicate, ± SD), 8.7 ± 1.1 µM.
Regarding `COc1cc(OC)nc(SCc2nnc(SCC(=O)NO)n2-c2ccccc2OC)n1` [SR24459, 2-((5-(((4,6-dimethoxypyrimidin-2-yl)thio)methyl)-4-(2-methoxyphenyl)-4H-1,2,4-triazol-3-yl)thio)-N-hydroxyacetamide], the concentration for half-maximal inhibition (IC50) against human meprin β (triplicate, ± SD) was determined as 52 ± 1 µM; against meprin α [2] (triplicate, ± SD), 12.1 ± 3.9 µM.
For the compound `COc1cccc(-n2c(CSc3nc(OC)cc(OC)n3)nnc2SCC(=O)NO)c1` [SR24460, 2-((5-(((4,6-dimethoxypyrimidin-2-yl)thio)methyl)-4-(3-methoxyphenyl)-4H-1,2,4-triazol-3-yl)thio)-N-hydroxyacetamide], the concentration for half-maximal inhibition (IC50) at human meprin β (triplicate, ± SD) was 59 ± 10 µM; against meprin α [2] (triplicate, ± SD), 10.3 ± 1.1 µM.
Regarding `COc1cc(OC)nc(SCc2nnc(SCC(=O)NO)n2-c2ccc(Br)cc2)n1` [SR24462, 2-((4-(4-bromophenyl)-5-(((4,6-dimethoxypyrimidin-2-yl)thio)methyl)-4H-1,2,4-triazol-3-yl)thio)-N-hydroxyacetamide], the IC50 against human meprin β (triplicate, ± SD) was over 100 µM; against meprin α [2] (triplicate, ± SD), 11.2 ± 2.6 µM.
For `COc1cc(OC)nc(SCc2nnc(SCC(=O)NO)n2-c2ccc(F)cc2)n1` [SR24463, 2-((5-(((4,6-dimethoxypyrimidin-2-yl)thio)methyl)-4-(4-fluorophenyl)-4H-1,2,4-triazol-3-yl)thio)-N-hydroxyacetamide], in that order: over 100 µM and 10.4 ± 2.8 µM.
Take `COc1cc(OC)nc(SCc2nnc(SCC(=O)NO)n2-c2cccc(C)c2)n1` [SR24467, 2-((5-(((4,6-dimethoxypyrimidin-2-yl)thio)methyl)-4-(m-tolyl)-4H-1,2,4-triazol-3-yl)thio)-N-hydroxyacetamide]: the half-inhibitory concentration (IC50) at human meprin β (triplicate, ± SD) is over 100 µM; against meprin α [2] (triplicate, ± SD), 2 µM and 10.3 µM.
On to `COc1cc(OC)nc(SCc2nnc(SCC(=O)NO)n2-c2cccnc2)n1` [SR24718, 2-((5-(((4,6-dimethoxypyrimidin-2-yl)thio)methyl)-4-(pyridin-3-yl)-4H-1,2,4-triazol-3-yl)thio)-N-hydroxyacetamide], for which the IC50 is over 100 µM at human meprin β (triplicate, ± SD) and 10.1 ± 2.3 µM at meprin α [2] (triplicate, ± SD).
Consider `CCN(CC)c1ccc(-n2c(CSc3nc(OC)cc(OC)n3)nnc2SCC(=O)NO)cc1` [SR26465, 2-((4-(4-(diethylamino)phenyl)-5-(((4,6-dimethoxypyrimidin-2-yl)thio)methyl)-4H-1,2,4-triazol-3-yl)thio)-N-hydroxyacetamide], for which the half-inhibitory concentration (IC50) against human meprin β (triplicate, ± SD) amounted to 75 ± 15 µM; against meprin α [2] (triplicate, ± SD), 0.6 ± 0.06 µM. For the same compound, the “meprin α/β fold selectivity (ratio of IC50 values)” value at meprin α [2] (meprin α over meprin β) was over 100 fold.
Regarding `COc1cc(OC)nc(SCc2nnc(SCC(=O)NO)n2-c2ccc(N3CCOCC3)cc2)n1` [SR26466, 2-((5-(((4,6-dimethoxypyrimidin-2-yl)thio)methyl)-4-(4-morpholinophenyl)-4H-1,2,4-triazol-3-yl)thio)-N-hydroxyacetamide], the IC50 is over 100 µM against human meprin β (triplicate, ± SD) and 1.1 ± 0.1 µM against meprin α [2] (triplicate, ± SD).
On to `COc1cc(OC)nc(SCc2nnc(SCC(=O)NO)n2-c2cccc3ccccc23)n1` [SR26467, 2-((5-(((4,6-dimethoxypyrimidin-2-yl)thio)methyl)-4-(naphthalen-1-yl)-4H-1,2,4-triazol-3-yl)thio)-N-hydroxyacetamide], for which the concentration for half-maximal inhibition (IC50) against human meprin β (triplicate, ± SD) was over 100 µM; against meprin α [2] (triplicate, ± SD) it was 2 ± 0.3 µM.
